Data from patent US12077503B2, “Substituted cyclic amides and their use as herbicides” (FMC CORPORATION, priority 2015, dated 2024).
Read-outs that look alike come from different tables or passages of the source.

What was measured:
Type in all cases: in vivo
Kochia (Kochia scoparia) [1] = test: Test A postemergence; settings: Bassia scoparia, post-emergence, 240 h; for pest or weed control at 125 g/ha: 125 g ai/ha, postemergence
In short: (§1)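 Preemergence soil spray on seeded pots or post-emergence spray on 1–2 leaf plants, in loam–sand blend. Greenhouse ~10 d. Visual rating 0–100 against untreated plants.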

corn (Zea mays) = test: Test A postemergence; settings: Zea mays, post-emergence, 240 h
In short: as §1

[2] = test system: Galium (catchweed bedstraw, Galium aparine); test: Test A postemergence; settings: Galium, post-emergence, 240 h; for pest or weed control at 125 g/ha: 125 g ai/ha, postemergence
In short: as §1

[3] = test system: pigweed (Amaranthus retroflexus); test: Test A postemergence; settings: Amaranthus retroflexus, post-emergence, 240 h; for pest or weed control at 125 g/ha: 125 g ai/ha, postemergence
In short: as §1

[4] = test system: sedge, umbrella (small-flower umbrella sedge, Cyperus difformis); test: Test B flooded paddy test; settings: Cyperus difformis, Flood, 250 g ai/ha, read-out: Sedge, Umbrella plant response rating
In short: (§2)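 Response scored visually against untreated controls, 0 = no effect and 100 = complete control, 13–15 d after treatment in the greenhouse. Compounds added to paddy water held 3 cm above soil surface. Treatment given at 2-leaf stage.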

rice (Oryra sativa) = test: Test B flooded paddy test; settings: Oryza sativa, Flood, 250 g ai/ha, read-out: Rice plant response rating
In short: as §2

[5] = test system: ducksalad (Heteranthera limosa); test: Test B flooded paddy test; settings: Heteranthera limosa, Flood, 250 g ai/ha, read-out: Ducksalad plant response rating
In short: as §2

[6] = test system: barnyardgrass (Echinochloa crus-galli); test: Test B flooded paddy test; settings: Echinochloa crus-galli, Flood, 250 g ai/ha, read-out: Barnyardgrass plant response rating
In short: as §2

[7] = test system: ragweed (common ragweed, Ambrosia elatior); test: Test A preemergence; settings: Ambrosia artemisiifolia, pre-emergence, 240 h, preemergence; for pest or weed control at 125 g/ha: 125 g ai/ha; for pest or weed control at 500 g/ha: 500 g ai/ha
In short: as §1

Kochia (Kochia scoparia) [8] = test: Test A preemergence; settings: Bassia scoparia, pre-emergence, 240 h, preemergence; for pest or weed control at 125 g/ha: 125 g ai/ha; for pest or weed control at 500 g/ha: 500 g ai/ha
In short: as §1

[9] = test system: giant foxtail (Setaria faberii); test: Test A preemergence; settings: Setaria faberi, pre-emergence, 240 h, preemergence; for pest or weed control at 125 g/ha: 125 g ai/ha; for pest or weed control at 500 g/ha: 500 g ai/ha
In short: as §1

[10] = test system: ryegrass, Italian (Italian ryegrass, Lolium multiflorum); test: Test A preemergence; settings: Lolium multiflorum, pre-emergence, 240 h, preemergence; for pest or weed control at 125 g/ha: 125 g ai/ha; for pest or weed control at 500 g/ha: 500 g ai/ha
In short: as §1

[11] = test system: pigweed (Amaranthus retroflexus); test: Test A preemergence; settings: Amaranthus retroflexus, pre-emergence, 240 h, preemergence; for pest or weed control at 125 g/ha: 125 g ai/ha; for pest or weed control at 500 g/ha: 500 g ai/ha
[12] = test system: barnyardgrass (Echinochloa crus-galli); test: Test A preemergence; settings: Echinochloa crus-galli, pre-emergence, 240 h, preemergence; for pest or weed control at 125 g/ha: 125 g ai/ha; for pest or weed control at 500 g/ha: 500 g ai/ha
In short: as §1

[13] = scale of 0 to 100 where 0 is no effect and 100 is complete control
[14] = 0 to 100 scale where 0 is no effect and 100 is complete control

Structure (SMILES): CN1C[C@H](c2ccc(F)c(OC(F)(F)C(F)F)c2)[C@@H](C(=O)Nc2ccccc2F)C1=O [Compound 740]
- pest or weed control at 125 g/ha (Kochia (Kochia scoparia) [1]; visual injury after approximately 10 d, 0 to 100 scale (0 no effect, 100 complete control), read-out: Plant response rating, Kochia): 40%
- Corn plant response rating (crop injury, 0 = no effect, 100 = complete kill) at 125 g/ha (corn (Zea mays); 125 g ai/ha, postemergence, visual injury after approximately 10 d, 0 to 100 scale (0 no effect, 100 complete control)): 70%
- pest or weed control at 125 g/ha ([2]; visual injury after approximately 10 d, 0 to 100 scale (0 no effect, 100 complete control), read-out: Plant response rating, Galium): 50%
- pest or weed control at 125 g/ha ([3]; visual injury after approximately 10 d, 0 to 100 scale (0 no effect, 100 complete control), read-out: Plant response rating, Pigweed): 40%
- pest or weed control at 250 g/ha [4, 13]: 0%
- pest or weed control at 250 g/ha (rice (Oryra sativa); [13]): 50%
- pest or weed control at 250 g/ha [5, 13]: 100%
- pest or weed control at 250 g/ha [6, 13]: 60%
- pest or weed control at 125 g/ha ([7]; visual rating after approx. 10 d, 0 to 100 scale where 0 is no effect and 100 is complete control, read-out: Plant response rating, Ragweed): 40%
- pest or weed control at 500 g/ha ([7]; 0 to 100 scale, 0 = no effect, 100 = complete control, read-out: Plant response rating, Ragweed): 50%
- pest or weed control at 125 g/ha (Kochia (Kochia scoparia) [8]; visual rating after approx. 10 d, 0 to 100 scale where 0 is no effect and 100 is complete control, read-out: Plant response rating, Kochia): 80%
- pest or weed control at 500 g/ha (Kochia (Kochia scoparia) [8]; 0 to 100 scale, 0 = no effect, 100 = complete control, read-out: Plant response rating, Kochia): 90%
- pest or weed control at 125 g/ha ([9]; visual rating after approx. 10 d, 0 to 100 scale where 0 is no effect and 100 is complete control, read-out: Plant response rating, Foxtail, Giant): 100%
- pest or weed control at 500 g/ha ([9]; 0 to 100 scale, 0 = no effect, 100 = complete control, read-out: Plant response rating, Foxtail, Giant): 100%
- pest or weed control at 125 g/ha ([10]; visual rating after approx. 10 d, 0 to 100 scale where 0 is no effect and 100 is complete control, read-out: Plant response rating, Ryegrass, Italian): 60%
- pest or weed control at 500 g/ha ([10]; 0 to 100 scale, 0 = no effect, 100 = complete control, read-out: Plant response rating, Ryegrass, Italian): 80%
- pest or weed control at 125 g/ha ([11]; visual rating after approx. 10 d, 0 to 100 scale where 0 is no effect and 100 is complete control, read-out: Plant response rating, Pigweed): 70%
- pest or weed control at 500 g/ha ([11]; 0 to 100 scale, 0 = no effect, 100 = complete control, read-out: Plant response rating, Pigweed): 80%
- pest or weed control at 125 g/ha ([12]; visual rating after approx. 10 d, 0 to 100 scale where 0 is no effect and 100 is complete control, read-out: Plant response rating, Barnyardgrass): 90%
- pest or weed control at 500 g/ha ([12]; 0 to 100 scale, 0 = no effect, 100 = complete control, read-out: Plant response rating, Barnyardgrass): 90%

Structure (SMILES): CCc1ccc([C@H]2CNC(=O)[C@@H]2C(=O)Nc2c(F)cccc2F)cc1 [Compound 1248]
- pest or weed control at 125 g/ha (Kochia (Kochia scoparia) [1]; visual injury vs untreated controls after approx. 10 d, 0 = no effect, 100 = complete control, read-out: Kochia plant response rating (0 to 100 scale)): 0%
- pest or weed control at 500 g/ha (Kochia (Kochia scoparia) [1]; Postemergence, 500 g ai/ha, visual injury, 0 to 100 scale (0 no effect, 100 complete control), approx. 10 d, read-out: Plant response rating, Kochia): 0%
- plant injury at 125 g/ha (corn (Zea mays); 125 g ai/ha, postemergence, visual injury vs untreated controls after approx. 10 d, 0 = no effect, 100 = complete control, read-out: Corn plant response rating (0 to 100 scale)): 0%
- Corn plant response rating (crop injury, 0 = no effect, 100 = complete kill) at 500 g/ha (corn (Zea mays); Postemergence, 500 g ai/ha, visual injury, 0 to 100 scale (0 no effect, 100 complete control), approx. 10 d): 0%
- pest or weed control at 125 g/ha ([2]; visual injury vs untreated controls after approx. 10 d, 0 = no effect, 100 = complete control, read-out: Galium plant response rating (0 to 100 scale)): 0%
- pest or weed control at 500 g/ha ([2]; Postemergence, 500 g ai/ha, visual injury, 0 to 100 scale (0 no effect, 100 complete control), approx. 10 d, read-out: Plant response rating, Galium): 0%
- pest or weed control at 125 g/ha ([3]; visual injury vs untreated controls after approx. 10 d, 0 = no effect, 100 = complete control, read-out: Pigweed plant response rating (0 to 100 scale)): 0%
- pest or weed control at 500 g/ha ([3]; Postemergence, 500 g ai/ha, visual injury, 0 to 100 scale (0 no effect, 100 complete control), approx. 10 d, read-out: Plant response rating, Pigweed): 0%
- pest or weed control at 250 g/ha [4, 14]: 0%
- pest or weed control at 250 g/ha (rice (Oryra sativa); [14]): 0%
- pest or weed control at 250 g/ha [5, 14]: 70%
- pest or weed control at 250 g/ha [6, 14]: 15%
- pest or weed control at 125 g/ha ([7]; visual injury rating, 0 to 100 scale where 0 is no effect and 100 is complete control, approximately 10 d, read-out: Ragweed plant response rating): 0%
- pest or weed control at 500 g/ha ([7]; 0 to 100 scale where 0 is no effect and 100 is complete control, read-out: Ragweed plant response rating): 0%
- pest or weed control at 125 g/ha (Kochia (Kochia scoparia) [8]; visual injury rating, 0 to 100 scale where 0 is no effect and 100 is complete control, approximately 10 d, read-out: Kochia plant response rating): 0%
- pest or weed control at 500 g/ha (Kochia (Kochia scoparia) [8]; 0 to 100 scale where 0 is no effect and 100 is complete control, read-out: Kochia plant response rating): 0%
- pest or weed control at 125 g/ha ([9]; visual injury rating, 0 to 100 scale where 0 is no effect and 100 is complete control, approximately 10 d, read-out: Foxtail, Giant plant response rating): 0%
- pest or weed control at 500 g/ha ([9]; 0 to 100 scale where 0 is no effect and 100 is complete control, read-out: Foxtail, Giant plant response rating): 50%
- pest or weed control at 125 g/ha ([10]; visual injury rating, 0 to 100 scale where 0 is no effect and 100 is complete control, approximately 10 d, read-out: Ryegrass, Italian plant response rating): 0%
- pest or weed control at 500 g/ha ([10]; 0 to 100 scale where 0 is no effect and 100 is complete control, read-out: Ryegrass, Italian plant response rating): 0%
- pest or weed control at 125 g/ha ([11]; visual injury rating, 0 to 100 scale where 0 is no effect and 100 is complete control, approximately 10 d, read-out: Pigweed plant response rating): 0%
- pest or weed control at 500 g/ha ([11]; 0 to 100 scale where 0 is no effect and 100 is complete control, read-out: Pigweed plant response rating): 0%
- pest or weed control at 125 g/ha ([12]; visual injury rating, 0 to 100 scale where 0 is no effect and 100 is complete control, approximately 10 d, read-out: Barnyardgrass plant response rating): 70%
- pest or weed control at 500 g/ha ([12]; 0 to 100 scale where 0 is no effect and 100 is complete control, read-out: Barnyardgrass plant response rating): 90%
